# From ChEMBL document CHEMBL5154811, “Discovery of SPH5030, a Selective, Potent, and Irreversible Tyrosine Kinase Inhibitor for HER2-Amplified and HER2-Mutant Cancer Treatment” (J Med Chem, 2022)
# How the values were obtained:
# BT-474 [1] = assay: Antitumor activity against human BT-474 cells xenografted in BALB/c nude mouse assessed as tumor growth inhibition by measuring relative tumor growth at 5 mg/kg/day, po administered once daily for 21 days by caliper method relative to control; format: functional; details: time 21 day
# [2] = Oral bioavailability in cynomolgus monkey at 15 mg/kg measured upto 1440 mins by LC/MS/MS analysis; format: ADME, organism-based, Macaca fascicularis; details: in vivo
# BT-474 [3] = assay: Antitumor activity against human BT-474 cells xenografted in BALB/c nude mouse assessed as tumor growth inhibition by measuring relative tumor growth at 10 mg/kg/day, po administered once daily for 21 days by caliper method relative to control; format: functional; details: time 21 day
# [4] = Half life in Sprague-Dawley rat at 10 mg/kg, po measured upto 1440 mins by LC/MS/MS analysis; format: ADME, organism-based; details: in vivo
# NCI-N87 [5] = assay: Antitumor activity against human NCI-N87 cells xenografted in BALB/c nude mouse assessed as tumor growth inhibition by measuring relative tumor growth at 5 mg/kg/day, po administered once daily for 21 days by caliper method relative to control; format: functional; details: time 21 day
# BaF3 [6] = assay: Antiproliferative activity against mouse BaF3 cells harbouring HER2 […] mutant assessed as inhibition of cell growth incubated for 72 hrs by Celltiter-Glo assay; format: functional, cell-based; details: BaF3, 72 h
# [7] = biological target: Receptor tyrosine-protein kinase erbB-2 (Homo sapiens, UniProt P04626, V777L); assay: Inhibition of HER2 V777L mutant (unknown origin) incubated for 120 mins in presence of 33P-ATP by P81 ion exchange cellulose chromatography
# Chain of Receptor tyrosine-protein kinase erbB-2 (Homo sapiens, UniProt P04626, V777L) (P04626 23-1255 V777L limits assumed): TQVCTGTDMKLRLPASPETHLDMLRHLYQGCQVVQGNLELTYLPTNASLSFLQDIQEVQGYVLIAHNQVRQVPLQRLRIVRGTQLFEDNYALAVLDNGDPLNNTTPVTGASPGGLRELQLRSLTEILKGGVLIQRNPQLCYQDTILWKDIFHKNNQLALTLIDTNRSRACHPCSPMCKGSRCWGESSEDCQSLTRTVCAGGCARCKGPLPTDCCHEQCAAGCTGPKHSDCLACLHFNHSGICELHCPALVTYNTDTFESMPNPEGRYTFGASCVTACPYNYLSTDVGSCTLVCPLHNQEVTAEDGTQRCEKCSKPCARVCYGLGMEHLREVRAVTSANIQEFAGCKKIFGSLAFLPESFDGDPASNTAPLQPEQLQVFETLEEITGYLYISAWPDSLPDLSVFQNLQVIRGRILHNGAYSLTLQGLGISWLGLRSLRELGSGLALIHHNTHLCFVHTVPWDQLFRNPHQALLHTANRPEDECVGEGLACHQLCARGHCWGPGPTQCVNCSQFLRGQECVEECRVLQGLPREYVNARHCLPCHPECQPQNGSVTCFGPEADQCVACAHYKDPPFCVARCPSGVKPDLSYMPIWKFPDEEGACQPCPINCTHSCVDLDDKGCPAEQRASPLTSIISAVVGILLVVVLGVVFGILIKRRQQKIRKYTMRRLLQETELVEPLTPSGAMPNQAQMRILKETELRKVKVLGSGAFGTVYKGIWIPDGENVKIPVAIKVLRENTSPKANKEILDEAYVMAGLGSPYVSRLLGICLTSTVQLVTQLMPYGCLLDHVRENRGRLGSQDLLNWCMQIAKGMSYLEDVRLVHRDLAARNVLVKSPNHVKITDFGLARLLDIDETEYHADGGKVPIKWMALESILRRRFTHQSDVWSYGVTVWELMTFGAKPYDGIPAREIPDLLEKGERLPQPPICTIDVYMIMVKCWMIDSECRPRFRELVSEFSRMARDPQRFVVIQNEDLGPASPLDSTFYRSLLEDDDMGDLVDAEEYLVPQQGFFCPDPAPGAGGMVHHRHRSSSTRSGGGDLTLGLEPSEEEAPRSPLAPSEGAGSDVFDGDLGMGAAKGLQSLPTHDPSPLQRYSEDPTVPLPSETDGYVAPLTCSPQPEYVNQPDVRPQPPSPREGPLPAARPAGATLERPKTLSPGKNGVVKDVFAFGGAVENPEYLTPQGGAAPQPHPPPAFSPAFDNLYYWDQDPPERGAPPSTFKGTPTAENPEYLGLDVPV
# [8] = Clearance in Sprague-Dawley rat at 3 mg/kg, iv measured upto 1440 mins by LC/MS/MS analysis; format: ADME, organism-based; details: in vivo
# NCI-N87 [9] = assay: Antitumor activity against human NCI-N87 cells xenografted in BALB/c nude mouse assessed as tumor growth inhibition at 10 mg/kg/day, po administered once daily for 21 days relative to control; format: functional; details: NCI-N87, 504 h, time 21 day, read-out: TGI
# [10] = Tmax in ICR mouse at 10 mg/kg, po measured upto 1440 mins by LC/MS/MS analysis; format: ADME, organism-based; details: in vivo
# [11] = biological target: Epidermal growth factor receptor (Homo sapiens, UniProt P00533); assay: Inhibition of wild type human N-terminal GST tagged EGFR (669 to 1210 residues) expressed in Sf21 insect cells incubated for 30 mins in presence of ATP by HTRF analysis
# Chain of Epidermal growth factor receptor (P00533 whole entry, the tested form may be a part): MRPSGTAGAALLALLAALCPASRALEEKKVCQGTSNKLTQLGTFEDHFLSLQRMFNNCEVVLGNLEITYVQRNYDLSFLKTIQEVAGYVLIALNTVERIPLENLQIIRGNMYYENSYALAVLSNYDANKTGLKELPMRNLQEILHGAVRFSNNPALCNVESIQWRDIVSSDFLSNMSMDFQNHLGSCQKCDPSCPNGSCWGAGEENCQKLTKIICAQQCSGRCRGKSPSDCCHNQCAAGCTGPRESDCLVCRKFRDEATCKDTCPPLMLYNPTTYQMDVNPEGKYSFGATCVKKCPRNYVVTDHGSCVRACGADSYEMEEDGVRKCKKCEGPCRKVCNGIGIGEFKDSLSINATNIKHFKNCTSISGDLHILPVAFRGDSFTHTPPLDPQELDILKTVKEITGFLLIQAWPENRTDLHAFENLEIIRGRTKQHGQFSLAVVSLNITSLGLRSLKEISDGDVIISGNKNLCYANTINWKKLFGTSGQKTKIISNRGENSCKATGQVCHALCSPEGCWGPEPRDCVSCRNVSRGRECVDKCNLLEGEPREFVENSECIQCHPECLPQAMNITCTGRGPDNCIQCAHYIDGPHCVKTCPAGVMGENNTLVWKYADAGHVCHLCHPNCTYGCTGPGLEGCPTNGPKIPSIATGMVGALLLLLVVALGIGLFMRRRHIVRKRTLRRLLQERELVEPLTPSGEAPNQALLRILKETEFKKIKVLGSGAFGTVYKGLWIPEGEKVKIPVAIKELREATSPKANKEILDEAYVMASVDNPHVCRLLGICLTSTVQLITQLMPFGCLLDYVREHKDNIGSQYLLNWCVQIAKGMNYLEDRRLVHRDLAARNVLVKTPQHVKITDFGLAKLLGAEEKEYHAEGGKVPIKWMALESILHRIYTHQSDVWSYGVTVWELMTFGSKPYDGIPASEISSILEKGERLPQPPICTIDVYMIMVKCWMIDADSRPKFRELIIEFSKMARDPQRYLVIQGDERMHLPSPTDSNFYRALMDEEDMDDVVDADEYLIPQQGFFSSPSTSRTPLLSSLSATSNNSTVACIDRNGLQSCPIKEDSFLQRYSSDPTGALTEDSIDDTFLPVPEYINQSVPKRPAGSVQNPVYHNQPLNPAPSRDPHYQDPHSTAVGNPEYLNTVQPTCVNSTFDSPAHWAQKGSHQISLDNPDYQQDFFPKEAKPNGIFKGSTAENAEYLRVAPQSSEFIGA
# BT-474 [12] = assay: Antitumor activity against human BT-474 cells xenografted in BALB/c nude mouse assessed as tumor growth inhibition at 10 mg/kg/day, po administered once daily for 21 days relative to control; format: functional; details: BT-474, 504 h, time 21 day, read-out: TGI
# [13] = Metabolic stability in human liver microsomes assessed as half life at 1 uM preincubated for 5 mins followed by NADPH addition by LC-MS/MS analysis; format: ADME, Microsome
# [14] = Cmax in ICR mouse at 10 mg/kg, po measured upto 1440 mins by LC/MS/MS analysis; format: ADME, organism-based; set-up: dose 10 mg/kg, time < 1440 min, route po; details: in vivo
# [15] = Volume of distribution at steady state in ICR mouse at 3 mg/kg, iv measured upto 1440 mins by LC/MS/MS analysis; format: ADME, organism-based; details: in vivo, read-out: Vdss
# [16] = Tmax in cynomolgus monkey at 15 mg/kg, po measured upto 1440 mins by LC/MS/MS analysis; format: ADME, organism-based, Macaca fascicularis; details: in vivo
# [17] = Toxicity in BALB/c nude mouse xenografted with human NCI-N87 cells assessed as reduction in body weight at 5 to 40 mg/kg, po administered once daily for 21 days; format: organism-based; details: in vivo, 504 h, dose 5-40 mg/kg, time 21 day
# [18] = Half life in cynomolgus monkey at 1 mg/kg, iv measured upto 1440 mins by LC/MS/MS analysis; format: ADME, organism-based, Macaca fascicularis; details: in vivo
# [19] = Toxicity in BALB/c nude mouse xenografted with mouse BaF3 cells harbouring HER2 A775_G776insYVMA mutant assessed as reduction in body weight at 10 to 40 mg/kg, po qd for 13 days; format: organism-based; details: in vivo, 312 h, dose 10-40 mg/kg, time 13 day
# [20] = Volume of distribution at steady state in cynomolgus monkey at 1 mg/kg, iv measured upto 1440 mins by LC/MS/MS analysis; format: ADME, organism-based, Macaca fascicularis; details: in vivo, read-out: Vdss
# [21] = Volume of distribution at steady state in Sprague-Dawley rat at 3 mg/kg, iv measured upto 1440 mins by LC/MS/MS analysis; format: ADME, organism-based; details: in vivo, read-out: Vdss
# [22] = Half life in ICR mouse at 10 mg/kg, po measured upto 1440 mins by LC/MS/MS analysis; format: ADME, organism-based; details: in vivo
# [23] = Cmax in cynomolgus monkey at 15 mg/kg, po measured upto 1440 mins by LC/MS/MS analysis; format: ADME, organism-based, Macaca fascicularis; set-up: dose 15 mg/kg, time < 1440 min, route po; details: in vivo
# ES-2 = assay: Antiproliferative activity against human ES2 cells assessed as cell growth inhibition incubated for 72 hrs by Celltiter-Glo assay; format: functional, cell-based; details: ES-2, 72 h
# BaF3 [24] = assay: Antitumor activity against mouse BaF3 cells harbouring HER2 A775_G776insYVMA xenografted in BALB/c nude mouse assessed as tumor growth inhibition at 10 mg/kg/day, po qd measured for 13 days relative to control; format: functional; details: BaF3, 312 h, time 13 day, read-out: TGI
# [25] = Toxicity in BALB/c nude mouse xenografted with human NCI-N87 cells assessed as mortality at 5 to 40 mg/kg, po administered once daily for 21 days; format: organism-based; details: in vivo, 504 h, dose 5-40 mg/kg, time 21 day
# [26] = AUC (0 to t) in ICR mouse at 10 mg/kg, po measured upto 1440 mins by LC/MS/MS analysis; format: ADME, organism-based; set-up: time < 1440 min, dose 10 mg/kg, route po; details: in vivo
# NCI-N87 [27] = assay: Antitumor activity against human NCI-N87 cells xenografted in BALB/c nude mouse assessed as tumor growth inhibition at 20 mg/kg/day, po administered once daily for 21 days relative to control; format: functional; details: NCI-N87, 504 h, time 21 day, read-out: TGI
# [28] = biological target: Receptor tyrosine-protein kinase erbB-2 (Homo sapiens, UniProt P04626, R896C); assay: Inhibition of HER2 R896C mutant (unknown origin) incubated for 120 mins in presence of 33P-ATP by P81 ion exchange cellulose chromatography
# Chain of Receptor tyrosine-protein kinase erbB-2 (Homo sapiens, UniProt P04626, R896C) (P04626 23-1255 R896C limits assumed): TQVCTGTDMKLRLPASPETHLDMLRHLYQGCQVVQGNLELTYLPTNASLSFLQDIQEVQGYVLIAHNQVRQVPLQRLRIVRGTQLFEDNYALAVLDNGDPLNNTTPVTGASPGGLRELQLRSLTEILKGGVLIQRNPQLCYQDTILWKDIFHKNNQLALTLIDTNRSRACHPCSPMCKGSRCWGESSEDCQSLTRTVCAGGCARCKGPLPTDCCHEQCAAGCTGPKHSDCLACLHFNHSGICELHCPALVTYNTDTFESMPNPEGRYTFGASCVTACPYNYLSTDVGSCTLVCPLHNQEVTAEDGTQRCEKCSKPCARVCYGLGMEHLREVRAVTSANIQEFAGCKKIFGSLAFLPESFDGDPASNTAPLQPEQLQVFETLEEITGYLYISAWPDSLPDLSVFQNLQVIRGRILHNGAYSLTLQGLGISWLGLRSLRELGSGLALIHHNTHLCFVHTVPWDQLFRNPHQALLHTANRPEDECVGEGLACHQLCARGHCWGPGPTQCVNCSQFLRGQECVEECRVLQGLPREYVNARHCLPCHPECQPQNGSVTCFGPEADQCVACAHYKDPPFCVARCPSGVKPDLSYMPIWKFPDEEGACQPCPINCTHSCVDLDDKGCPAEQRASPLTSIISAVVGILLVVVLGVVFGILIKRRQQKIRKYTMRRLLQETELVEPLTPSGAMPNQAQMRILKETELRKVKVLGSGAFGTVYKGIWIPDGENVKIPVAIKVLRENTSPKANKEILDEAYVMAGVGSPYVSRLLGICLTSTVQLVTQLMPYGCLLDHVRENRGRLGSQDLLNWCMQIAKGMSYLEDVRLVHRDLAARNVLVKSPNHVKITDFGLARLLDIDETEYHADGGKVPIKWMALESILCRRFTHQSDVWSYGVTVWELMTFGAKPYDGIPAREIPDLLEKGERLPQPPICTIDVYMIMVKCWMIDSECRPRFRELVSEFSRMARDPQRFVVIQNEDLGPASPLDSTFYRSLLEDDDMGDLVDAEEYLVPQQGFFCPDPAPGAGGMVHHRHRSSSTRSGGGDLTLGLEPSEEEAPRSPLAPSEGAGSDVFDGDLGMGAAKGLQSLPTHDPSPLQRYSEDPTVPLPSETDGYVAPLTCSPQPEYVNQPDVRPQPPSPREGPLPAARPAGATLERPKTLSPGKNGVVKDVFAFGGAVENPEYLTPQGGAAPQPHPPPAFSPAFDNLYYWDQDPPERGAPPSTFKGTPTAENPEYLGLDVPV
# [29] = Half life in cynomolgus monkey at 15 mg/kg, po measured upto 1440 mins by LC/MS/MS analysis; format: ADME, organism-based, Macaca fascicularis; details: in vivo
smiles,measurement,setting,value
CCOc1cc2ncnc(Nc3ccc(Oc4cc5nncn5cn4)c(C)c3)c2cc1NC(=O)/C(F)=C/[C@H]1CCCN1C,T/C,BT-474 [1],17.68%
same,bioavailability,[2],43.4%
same,T/C,BT-474 [3],8.31%
same,half-life,[4],4.38 h
same,T/C,NCI-N87 [5],5.26%
same,IC50,BaF3 [6],6.3 nM
same,IC50,[7],0.16 nM
same,clearance,[8],13 mL/min/kg
same,inhibition in vivo at 10 mg/kg/day,NCI-N87 [9],113%
same,Tmax,[10],2.67 h
same,IC50,[11],8.13 nM
same,inhibition in vivo at 10 mg/kg/day,BT-474 [12],123%
same,half-life at 1 µM,[13],9.24 h
same,Cmax,[14],1900 ng/mL
same,Vd,[15],2.96 L/kg
same,Tmax,[16],7.5 h
same,Activity,[17],Non-Toxic
same,half-life,[18],7.46 h
same,Activity,[19],Non-Toxic
same,Vd,[20],3.71 L/kg
same,Vd,[21],3.55 L/kg
same,half-life,[22],3.6 h
same,Cmax,[23],790 ng/mL
same,IC50,ES-2,2720 nM
same,inhibition in vivo at 10 mg/kg/day,BaF3 [24],95%
same,Activity,[25],Non-Toxic
same,AUC(0-t) at 24 h,[26],13100 ng·h/mL
same,inhibition in vivo at 20 mg/kg/day,NCI-N87 [27],114%
same,IC50,[28],0.56 nM
same,half-life,[29],5.63 h
